# Results as given in a melting point compilation (Tetko et al.; mined from patent text by program, amines drawn as free bases though some values may be those of a salt).
row,Structure (SMILES),melting point [°C]
1,COC(=O)C1CCC2C3CCC4CC(O)C(O)CC4(C)C3C(NC3CCCCC3)CC12C (stereo not drawn),199 to 202
2,O=c1ccnc(NCCCN(Cc2ccccc2Cl)c2ccccn2)[nH]1,153 to 154
3,CS(=O)(=O)CCN1C(=O)CN=C(c2ccccc2)c2cc(Cl)ccc21,135 to 156
4,CNCC1Cc2cc(-c3ccc(F)cc3)cc(F)c2O1 (stereo not drawn),> 250
5,CC(C)(C)OC(=O)N1CCN(C[C@H](O)Cn2c3ccccc3c3cc(Br)ccc32)CC1,75 to 85
6,CC(C)(C)OC(=O)NC1CCCC2(CCCC2)NC1=O (stereo not drawn),180 to 181
7,ON=Cc1ccc2c(c1)ncn2-c1cccc(N2CCCCC2)c1,213 to 214
8,CCOC(=O)c1cc(C(=O)Nc2ccccc2OC(C)=O)cc(Cl)c1O,163 to 166
9,O=C1N=NC(=O)c2c1[nH]c1cc(C(F)(F)F)ccc21,291 to 293
10,COc1c(Br)c(-c2cc(C(C)C)n(C)n2)cc2oc(=O)c(Cl)c(C)c12,165
11,CCCCCCCCOc1ccc(OCc2ccc(C(=O)OC3CCC(CCC)(CCC)OC3=O)cc2)cc1 (stereo not drawn),65
12,CCOC(=O)c1c(CC)nc2c(C(F)(F)F)cccc2c1O,129
13,CCCCON=C(C(=O)OCC)c1csc(N)n1,126 to 128
14,O=C1c2cscc2C(=O)c2cscc21,340
15,CSc1cc(C)nc(SC)c1NC(=O)CCCCCCCCSc1nc2ccccc2s1,126 to 127
16,CC(C)(C)C(=O)C(C(c1ccc(Cl)cc1)n1cncn1)n1cncn1 (stereo not drawn),157 to 161
17,CC(N)C(C)n1ncn(-c2ccc(N3CCN(c4ccc(O)cc4)CC3)cc2)c1=O (stereo not drawn),237
18,CCC(Oc1ccc(C(C)(C)CC(C)(C)C)cc1)C(=O)Nc1ccc(Cl)c(Nc2cc(=O)n(-c3c(Cl)cc(Cl)cc3Cl)[nH]2)c1 (stereo not drawn),163 to 165
19,CC(C)n1c(=O)nc(-c2cnc3ccccc3c2)c2cc3c(cc21)OCO3,279 to 281
20,CC(C)C(N)C(=O)NC(Cc1ccccc1)C(O)C(O)C(Cc1ccccc1)NC(=O)C(N)C(C)C (stereo not drawn),205 to 207
21,O=C1NCCc2[nH]c3c(F)cccc3c21,255 to 257
22,CCN(CC)CCOC(=O)C1=C(C)Nc2ccnc(OC(C)C)c2C1c1ccccc1C(F)(F)F (stereo not drawn),198 to 200
23,COc1ccc([N+](=O)[O-])c(NCCC[C@H](N)C(=O)O)c1,245 to 246
24,CCCc1c(OCCCCCCc2cccc(O)c2O)ccc(C(=O)O)c1O,147 to 150
25,COC(=O)c1ccc(Cc2cn(C(C)C)c3ccc(C=C(C)C(=O)O)cc23)c(OC)c1,143 to 145

row,Structure (SMILES),melting point [°C]
1,CCCCCCOc1ccc(C=[N+]([O-])C(C)(C)C)cc1,69
2,COc1nc(-c2cccc(Cl)c2)c2cc(C(=O)N(C)OC)ccc2n1,118
3,N#Cc1cnc2sc(-c3ccccc3)cc2c1Cl,202 to 204
4,N#Cc1c(Cl)nc2cscc2c1Cl,228
5,CNC(=O)c1cc(C(=O)OC)cc(C(=O)NC)n1,202 to 203
6,CC(C)(C)OC(=O)NCCCCn1c(-c2ccccc2)nc2cnc3ccccc3c21,158 to 159
7,CC(C)(COc1ccc(Cl)cc1)C(=O)Cn1cncn1,88 to 90
8,Nc1cnn(CCO)c1NCCO,140 to 142
9,CCCCCc1c(-c2ccc(OC(F)F)c(OC3CC3)c2)[nH]c2cn[nH]c(=O)c12,191 to 193
10,COC(=O)Nc1ccc(-c2ncon2)cc1,174 to 176
11,CN1CCCC(OC(=O)Nc2ccc(C(F)(F)F)cc2)C1 (stereo not drawn),119 to 120
12,CC1(C)OC(=O)C(Oc2cccc(N)n2)=C1c1ccc(S(C)(=O)=O)cc1,165 to 166
13,O=C(Nc1ccc(Oc2ccnc(NC3CCCCC3)n2)c2ccccc12)c1cc(F)cc(N2CCOCC2)c1,135 to 136
14,CC(C)NC(Nc1cc(C(F)(F)F)cc(C(F)(F)F)c1)=C(C#N)S(C)(=O)=O,188 to 191
15,CCCCc1nc(I)c(CO)[nH]1,166
16,Cc1cc(CNC(=O)c2sc(-n3cnn(Cc4ccc(F)cc4)c3=O)nc2C)[nH]n1,234 to 235
17,Cc1c(NC(=O)c2ccc(-c3ccc4c(c3)OCO4)cc2)ccc2cc(CN3CCCC3)cnc12,171 to 172
18,COc1cc2c(cc1OC)CCCCC(C(=O)N1CCN(C(=O)c3cc(OC)c(OC)c(OC)c3)CC1)=C2,170 to 171
19,O=C(N[C@H](Cc1ccc(C(F)(F)F)cc1)[C@@H](O)c1ccc(Cl)nc1)c1ccc(F)c2ccccc12 (racemic),188 to 189
20,CCCCCCCCNC(=O)N1CCC(S(=O)(=O)c2ccc(CCNC[C@H](O)COc3ccc(O)c(C)c3)cc2)CC1,58 to 71
21,Cc1cc(SC2=C(O)CC(C3CCCC3)(C3CCCC3)OC2=O)c(C(C)(C)C)cc1OS(=O)(=O)c1cn(C)cn1,143 to 145
22,Cc1c(C(=O)O)oc2c(C(C)(C)C)cc(C(C)(C)C)c(O)c12,241 to 243
23,O=C(O)CCC(CCCCNS(=O)(=O)c1ccc(Cl)cc1)CCOc1cccnc1 (stereo not drawn),86 to 88
24,O=C1CCC(c2ccc(O)cc2)=NN1c1ccccn1,> 220
25,N#CNC(=Nc1ccncc1)NCCSc1ccccc1,161 to 163

row,Structure (SMILES),melting point [°C]
1,CN(C)C1CNc2c(cc(Br)cc2[N+](=O)[O-])C1 (stereo not drawn),88 to 91
2,O=[N+]([O-])c1cccc(C(F)(F)F)c1NCC(O)CO (stereo not drawn),117
3,CC(O)c1ccc(Oc2ccc(NC(=O)Nc3cc(C(C)(C)C)on3)cc2)cc1 (stereo not drawn),80 to 85
4,CC(C)Cc1cncc(O)n1,130 to 131
5,O=C(CCl)N1CCSC1CCc1ccccc1O (stereo not drawn),98
6,CCOC(=O)CNC(=O)c1n[nH]cc1NC(=O)c1cccc(C)n1,228 to 229
7,C#Cc1ccnc(-c2cc([N+](=O)[O-])c(-c3cc(C#C)ccn3)cc2N)c1,154 to 160
8,CCCCCOC(=O)C1=C(C)NC(C)=C(C(=O)NC(C)C)C1c1ccccc1[N+](=O)[O-] (stereo not drawn),186 to 189
9,CC(=O)N(c1ccccc1)c1[nH]c2ccccc2c1Sc1ccccc1,66 to 68
10,COc1cc(C(=O)N2Cc3ccc(C(=O)NCc4ccccc4C)n3Cc3ccccc32)ccc1-c1ccccc1C,204
11,COc1cc(C(=O)C#Cc2ccccc2)cc(OC)c1OC,94 to 96
12,COC(=O)c1nc(-c2ccc(Cl)cc2F)cc(N)c1OC,139 to 144
13,CCOC(=O)C(C(=O)OCC)C1c2ccccc2C(F)(F)C(F)(F)c2ccccc21,144 to 146
14,Cc1ncnc(N)c1C=O,158 to 160
15,C1=C(c2ccccc2)CC(CN2CCN(c3ccccn3)CC2)C1 (stereo not drawn),100 to 101
16,CC(=O)OCC1CC(n2c(Br)nc3cc(Cl)c(Cl)cc32)C(OC(C)=O)C1OC(C)=O (stereo not drawn),156 to 159
17,O=C(NCCCc1ccncc1)N(CCC12CC3CC(CC(C3)C1)C2)Cc1ccco1,128 to 130
18,C=Cc1cc(Br)c(Br)cc1Br,64
19,O=C1c2ccccc2C(OCCc2ccccn2)N1c1ccc2ccc(Cl)nc2n1 (stereo not drawn),142
20,C=CCn1c(=O)c2nc(-c3ccc(/C=C/C(=O)O)cc3)[nH]c2n(CC=C)c1=O,> 300
21,C=Cc1ccc(OC)cc1C1C(C(=O)OC)=C(C)NC(C)=C1C(=O)OC,141 to 143
22,CCOCC(=NNc1ccc(C(F)(F)F)cc1)C(=O)NCc1ccc(Cl)nc1,98 to 99
23,CN1CCc2ccc(C(=O)CCC(=O)N3CCC(c4ccc(Cl)cc4)CC3)cc2C1,139 to 140
24,COc1ccc(C2CNC(=O)O2)cc1OC (stereo not drawn),114 to 117
25,COC(=O)c1cc2cc(Cl)c(Cl)cc2nc1Cl,178 to 180

row,Structure (SMILES),melting point [°C]
1,COc1cc2c(=O)n(CCO)c3c4cc5c(cc4ncc3c2cc1OC)OCO5,285 to 286
2,Cc1ncc(Cn2c(NC3CCN(CCNC(=O)c4cc5ccccc5n4C)CC3)nc3ccccc32)o1,104
3,Cc1nc2c3ccccc3ccn2c1CN1CCN(CCO)CC1,115 to 117
4,Brc1cnc2c(c1)ncn2-c1cccc(CN2CCOCC2)c1,176 to 178
5,Cn1nnc(CC[C@H]2CC[C@@H](c3ccc(F)cc3)N2S(=O)(=O)c2ccc(Cl)cc2)n1 (racemic),122
6,Cc1ncc(C#N)c(Nc2cccc3[nH]ccc23)c1I,192 to 194
7,CC(=O)c1cccc(Oc2ncccc2C(=O)NCc2ccc(S(N)(=O)=O)cc2)c1,162 to 164
8,COc1cc(OC)cc(C(Cc2ccc(OC)c(OC)c2)=NNS(=O)(=O)c2ccc(C)cc2)c1,132 to 133
9,CCOC(=O)c1cc(C(=O)C(C)C)c(=O)[nH]c1C(=O)OCC,116 to 118
10,CN1C(=O)N(C[C@@H]2COC(=O)[C@@H]2CC2CCCC2)C(=O)C1(C)C (racemic),71 to 74
11,Cc1ccccc1C(=O)N1CCc2nnc(Cl)cc2C1,123 to 126
12,Fc1ccc(-c2ccn(C3CN4CCC3CC4)c2-c2ccncc2)cc1 (stereo not drawn),229 to 230
13,CC(C)N1CCc2ccc(C(=O)CCC(=O)N3CCC(c4ccc(Cl)cc4)CC3)cc2CC1,139 to 140
14,CCCC1CC(O)N(C(C)=O)C1(C(=O)OCC)C(=O)OCC (stereo not drawn),105 to 106
15,CCOC(OCC)c1nc(C2CC2)nc(N)c1Cl,104 to 110
16,COC(=O)[C@H]1CC[C@H](n2ccn(-c3ccc(OCc4ccccc4)cc3)c2=O)CC1,183 to 185
17,CNCC(O)COc1cc(-c2ccc(C)cc2)nc2cc(C)ccc12 (racemic),146 to 150
18,CN1C=CCC2C1N2S(=O)(=O)c1ccc(N)cc1 (stereo not drawn),188 to 190
19,COc1c(NC(=O)COc2ccccc2)c(C(N)=O)c(OC)c(NC(=O)COc2ccccc2)c1C(N)=O,272 to 274
20,CCc1cnc(C2=NC(C)(C(C)C)C(=O)N2)c(C(=O)NCCCCCC(=O)OC)c1 (stereo not drawn),101 to 103
21,CCC(=S)NC[C@H]1CN(c2ccc(N3CCOCC3)c(F)c2)C(=O)O1,138 to 139
22,CC(C(=O)C(O)C1OC(n2cc(F)c(=O)[nH]c2=O)C(O)C1O)c1ccccc1 (mixture of isomers),133 to 134
23,CCCCCC(O)CCCN(Cc1cccc(C=CC(=O)O)c1)S(C)(=O)=O (stereo not drawn),105
